Laboratory results as given in patent US20240279237A1, “FUSED BICYCLIC HETEROARYL COMPOUNDS USEFUL AS NLRP3 INHIBITORS” (Hoffmann-La Roche Inc., priority 2021, published 2024).

Target: T1, NLRP3 (Homo sapiens, UniProt Q96P20)
T1 construct: Seed THP-1 cells (25,000 cells/well) containing 1.0 μg/ml LPS in 40 μl of RPMI medium; host or cells: THP-1 cells
Assay: THP-1 Cells Pyroptosis Assay
Assay type: cell-based
Conditions: THP-1 cells with 1.0 μg/ml LPS; compound 3 hours; nigericin 5 μM 1 hr; resazurin readout
How it was run: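 THP-1 cells in serum-free RPMI primed with LPS (1 μg/ml FAC), incubated with compound 3 h at 37 °C, then nigericin (5 μM FAC) for 1 h. Supernatant removed after spin; viability read by resazurin (100 μM FAC) reduction after a further 1-2 h at 37 °C.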

T1 sequence (Q96P20 whole entry): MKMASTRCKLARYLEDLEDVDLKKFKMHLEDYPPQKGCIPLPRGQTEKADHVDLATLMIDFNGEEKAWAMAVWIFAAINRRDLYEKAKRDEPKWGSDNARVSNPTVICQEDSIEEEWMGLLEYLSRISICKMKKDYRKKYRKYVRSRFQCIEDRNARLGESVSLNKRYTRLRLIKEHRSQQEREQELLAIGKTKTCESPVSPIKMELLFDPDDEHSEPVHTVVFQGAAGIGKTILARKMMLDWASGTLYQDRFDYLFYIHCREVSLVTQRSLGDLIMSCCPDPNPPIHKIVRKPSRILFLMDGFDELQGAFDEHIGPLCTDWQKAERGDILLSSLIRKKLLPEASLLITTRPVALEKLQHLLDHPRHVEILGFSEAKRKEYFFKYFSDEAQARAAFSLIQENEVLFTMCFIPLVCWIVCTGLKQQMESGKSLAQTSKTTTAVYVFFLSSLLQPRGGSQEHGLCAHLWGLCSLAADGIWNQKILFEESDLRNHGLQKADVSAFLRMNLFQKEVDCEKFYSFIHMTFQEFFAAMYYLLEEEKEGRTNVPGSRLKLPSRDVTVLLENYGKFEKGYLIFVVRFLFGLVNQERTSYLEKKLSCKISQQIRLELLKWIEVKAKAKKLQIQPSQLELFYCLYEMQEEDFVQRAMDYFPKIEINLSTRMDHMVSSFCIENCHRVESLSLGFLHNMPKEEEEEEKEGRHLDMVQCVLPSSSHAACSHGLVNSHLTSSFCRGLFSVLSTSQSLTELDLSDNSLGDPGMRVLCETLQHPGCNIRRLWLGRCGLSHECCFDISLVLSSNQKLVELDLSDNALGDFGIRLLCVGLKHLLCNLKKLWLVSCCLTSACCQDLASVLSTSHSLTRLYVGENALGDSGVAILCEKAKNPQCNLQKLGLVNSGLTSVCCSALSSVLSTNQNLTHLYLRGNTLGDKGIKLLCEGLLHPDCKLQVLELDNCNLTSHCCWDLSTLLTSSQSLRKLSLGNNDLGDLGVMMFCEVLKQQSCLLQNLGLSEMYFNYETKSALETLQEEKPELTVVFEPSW

SMILES | IC50 [µM]
CCN1CCC12CCN(c1nc3nc(-c4c(C)cc(C(F)(F)F)cc4O)ccc3o1)CC2 [Example 79, 2-[2-(1-Ethyl-1,7-diazaspiro[3.5]nonan-7-yl)oxazolo[4,5-b]pyridin-5-yl]-3-methyl-5-(trifluoromethyl)phenol] | 0.0949
CCN1CC2OCCN(c3nc4nc(-c5c(C)cc(C#N)cc5O)ccc4o3)C2C1 [Example 80, 3-Hydroxy-5-methyl-4-[2-[rel-(4aS,7aR)-6-ethyl-2,3,4a,5,7,7a-hexahydropyrrolo[3,4-b][1,4]oxazin-4-yl]oxazolo[4,5-b]pyridin-5-yl]benzonitrile] | 0.11
Cc1cc(C#N)cc(O)c1-c1ccc2oc(N3CCCC4CCN(C)CC43)nc2n1 (centres unmarked) [Example 81, 3-Hydroxy-5-methyl-4-[2-(7-methyl-2,3,4,4a,5,6,8,8a-octahydro-1,7-naphthyridin-1-yl)oxazolo[4,5-b]pyridin-5-yl]benzonitrile] | 0.0723
Cc1ccc(C#N)c(O)c1-c1ccc2oc(N[C@@H]3CCCN(C)C3)nc2n1 [Example 82, 2-Hydroxy-4-methyl-3-[2-[[(3R)-1-methyl-3-piperidyl]amino]oxazolo[4,5-b]pyridin-5-yl]benzonitrile;2,2,2-trifluoroacetic acid] | 0.128
Cc1cc(Cl)cc(O)c1-c1ccc2oc(CC3CCCN(C)C3)nc2n1 (centres unmarked) [Example 83, 5-Chloro-3-methyl-2-[2-[(1-methyl-3-piperidyl)methyl]oxazolo[4,5-b]pyridin-5-yl]phenol] | 0.0051
COC(=O)CCCN1CCC[C@@H](Nc2nc3nc(-c4c(C)cc(Cl)cc4O)ccc3o2)C1 [Example 84, Methyl 4-[(3R)-3-[[5-(4-chloro-2-hydroxy-6-methyl-phenyl)oxazolo[4,5-b]pyridin-2-yl]amino]-1-piperidyl]butanoate] | 0.0008
Cc1cc(C#N)cc(O)c1-c1ccc2oc(N[C@@H]3CCCN(CCO)C3)nc2n1 [Example 85, 3-Hydroxy-4-[2-[[(3R)-1-(2-hydroxyethyl)-3-piperidyl]amino]oxazolo[4,5-b]pyridin-5-yl]-5-methyl-benzonitrile] | 0.0154
Cc1cc(Cl)cc(O)c1-c1ccc2oc(NC3CCC(CO)N(C)C3)nc2n1 (centres unmarked) [Example 87, 5-Chloro-2-[2-[[6-(hydroxymethyl)-1-methyl-3-piperidyl]amino]oxazolo[4,5-b]pyridin-5-yl]-3-methyl-phenol;2,2,2-trifluoroacetic acid] | 0.0756
Cc1cc(Cl)cc(O)c1-c1ccc2oc(CC3CN(C(C)C)CCO3)nc2n1 (centres unmarked) [Example 88, 5-Chloro-2-[2-[(4-isopropylmorpholin-2-yl)methyl]oxazolo[4,5-b]pyridin-5-yl]-3-methyl-phenol;formic acid] | 0.006
Cc1cc(S(C)(=O)=O)cc(O)c1-c1ccc2oc(N[C@@H]3CCCN(C)C3)nc2n1 [Example 89, 3-Methyl-2-[2-[[(3R)-1-methyl-3-piperidyl]amino]oxazolo[4,5-b]pyridin-5-yl]-5-methylsulfonyl-phenol;2,2,2-trifluoroacetic acid] | 0.536
COCCN(c1nc2nc(-c3c(C)cc(Cl)cc3O)ccc2o1)[C@@H]1CCCN(C)C1 [Example 90, 5-Chloro-2-[2-[2-methoxyethyl-[(3R)-1-methyl-3-piperidyl]amino]oxazolo[4,5-b]pyridin-5-yl]-3-methyl-phenol;formic acid] | 0.0226
CCN1CCCC[C@@H](Nc2nc3nc(-c4c(C)cc(C(F)(F)F)cc4O)ccc3o2)C1 [Example 91, 2-[2-[[(3R)-1-Ethylazepan-3-yl]amino]oxazolo[4,5-b]pyridin-5-yl]-3-methyl-5-(trifluoromethyl)phenol] | 0.0049
Cc1cc(Cl)cc(O)c1-c1ccc2oc(NCC3CC(O)C3)nc2n1 (centres unmarked) [Example 92, 5-Chloro-2-[2-[(3-hydroxycyclobutyl)methylamino]oxazolo[4,5-b]pyridin-5-yl]-3-methyl-phenol] | 0.0269
Cc1cc(Cl)cc(O)c1-c1ccc2oc(N[C@@H]3CCCN(CCO)C3)nc2n1 [Example 93, 5-Chloro-2-[2-[[(3R)-1-(2-hydroxyethyl)-3-piperidyl]amino]oxazolo[4,5-b]pyridin-5-yl]-3-methyl-phenol] | 0.0021
CN1CCC[C@@H](Nc2nc3nc(-c4c(O)cc(Cl)cc4CO)ccc3o2)C1 [Example 94, 5-Chloro-3-(hydroxymethyl)-2-[2-[[(3R)-1-methyl-3-piperidyl]amino]oxazolo[4,5-b]pyridin-5-yl]phenol] | 0.0119
Cc1cc(Cl)cc(O)c1-c1ccc2oc(N[C@@H]3CCCN(CCCO)C3)nc2n1 [Example 95, 5-Chloro-2-[2-[[(3R)-1-(3-hydroxypropyl)-3-piperidyl]amino]oxazolo[4,5-b]pyridin-5-yl]-3-methyl-phenol] | 0.0112

SMILES | IC50 [µM]
COCCCN1CCC[C@@H](Nc2nc3nc(-c4c(C)cc(Cl)cc4O)ccc3o2)C1 [Example 96, 5-Chloro-2-[2-[[(3R)-1-(3-methoxypropyl)-3-piperidyl]amino]oxazolo[4,5-b]pyridin-5-yl]-3-methyl-phenol] | 0.0561
Cc1cc(Cl)cc(O)c1-c1ccc2oc(N[C@@H]3CCCN(CC(C)O)C3)nc2n1 (stereo partly drawn) [Example 97, 5-Chloro-3-methyl-2-[2-[[(3R)-1-(2-hydroxypropyl)-3-piperidyl]amino]oxazolo[4,5-b]pyridin-5-yl]phenol] | 0.0939
Cc1cc(Cl)cc(O)c1-c1ccc2oc(N(CCO)[C@@H]3CCCN(C)C3)nc2n1 [Example 98, 5-Chloro-2-[2-[2-hydroxyethyl-[(3R)-1-methyl-3-piperidyl]amino]oxazolo[4,5-b]pyridin-5-yl]-3-methyl-phenol] | 0.0111
CCN1CC[C@@H](F)[C@@H](Nc2nc3nc(-c4c(C)cc(Cl)cc4O)ccc3o2)C1 [Example 99A, 5-Chloro-2-[2-[[(3S,4R)-1-ethyl-4-fluoro-3-piperidyl]amino]oxazolo[4,5-b]pyridin-5-yl]-3-methyl-phenol] | 0.0019
COCc1cc(Cl)cc(O)c1-c1ccc2oc(N[C@@H]3C[C@H](O)CN(C)C3)nc2n1 [Example 100, (3S,5R)-5-[[5-[4-Chloro-2-hydroxy-6-(methoxymethyl)phenyl]oxazolo[4,5-b]pyridin-2-yl]amino]-1-methyl-piperidin-3-ol] | 0.0184
CCN1CCC[C@@H](Nc2nc3nc(-c4c(C)cc(C(F)(F)F)cc4O)cc(N4CC(O)C4)c3o2)C1 [Example 101, 1-[2-[[(3R)-1-Ethyl-3-piperidyl]amino]-5-[2-hydroxy-6-methyl-4-(trifluoromethyl)phenyl]-oxazolo[4,5-b]pyridin-7-yl]azetidin-3-ol] | 0.006
CC(=O)c1cc(-c2c(C)cc(C(F)(F)F)cc2O)nc2nc(N[C@@H]3CCCN(C)C3)oc12 [Example 102, 1-[5-[2-Hydroxy-6-methyl-4-(trifluoromethyl)phenyl]-2-[[(3R)-1-methyl-3-piperidyl]amino]oxazolo[4,5-b]pyridin-7-yl]ethanone;2,2,2-trifluoroacetic acid] | 0.0065
CCN1CCC[C@@H](Nc2nc3nc(-c4c(C)cc(C(F)(F)F)cc4O)cc(NC)c3o2)C1 [Example 103, 2-[2-[[(3R)-1-Ethyl-3-piperidyl]amino]-7-(methylamino)oxazolo[4,5-b]pyridin-5-yl]-3-methyl-5-(trifluoromethyl)phenol] | 0.0046
CCN1CCC[C@@H](Nc2nc3nc(-c4c(C)cc(C(F)(F)F)cc4O)cc(OC)c3o2)C1 [Example 104, 2-[2-[[(3R)-1-Ethyl-3-piperidyl]amino]-7-methoxy-oxazolo[4,5-b]pyridin-5-yl]-3-methyl-5-(trifluoromethyl)phenol] | 0.0019
Cc1cc(C(F)(F)F)cc(O)c1-c1cc(C(C)(C)O)c2oc(N[C@@H]3CCCN(C)C3)nc2n1 [Example 105, 2-[7-(1-Hydroxy-1-methyl-ethyl)-2-[[(3R)-1-methyl-3-piperidyl]amino]oxazolo[4,5-b]pyridin-5-yl]-3-methyl-5-(trifluoromethyl)phenol;2,2,2-trifluoroacetic acid] | 0.0089
Cc1cc(C(F)(F)F)cc(O)c1-c1cc(C(C)O)c2oc(N[C@@H]3CCCN(C)C3)nc2n1 (stereo partly drawn) [Example 106, 2-[7-(1-Hydroxyethyl)-2-[[(3R)-1-methyl-3-piperidyl]amino]oxazolo[4,5-b]pyridin-5-yl]-3-methyl-5-(trifluoromethyl)phenol] | 0.022
CCN1CCC[C@@H](Nc2nc3nc(-c4c(O)cc(C#N)cc4Cl)ccc3o2)C1 [Example 107, 3-Chloro-4-[2-[[(3R)-1-ethyl-3-piperidyl]amino]oxazolo[4,5-b]pyridin-5-yl]-5-hydroxy-benzonitrile;2,2,2-trifluoroacetic acid] | 0.0088
Cc1cc(C#N)cc(O)c1-c1ccc2oc(N[C@@H]3CCC[C@H]3N(C)C)nc2n1 [Example 108, 4-[2-[[(1R,2R)-2-(Dimethylamino)cyclopentyl]amino]oxazolo[4,5-b]pyridin-5-yl]-3-hydroxy-5-methyl-benzonitrile] | 0.0168
CCN1CCC[C@@H](Nc2nc3nc(-c4c(C)cc(C#N)cc4O)cnc3o2)C1 [Example 109, 4-[2-[[(3R)-1-Ethyl-3-piperidyl]amino]oxazolo[4,5-b]pyrazin-5-yl]-3-hydroxy-5-methyl-benzonitrile;2,2,2-trifluoroacetic acid] | 0.0014
CCN1CCC[C@@H](Nc2nc3nc(-c4c(O)cc(C#N)cc4COC)ccc3o2)C1 [Example 110, 4-[2-[[(3R)-1-Ethyl-3-piperidyl]amino]oxazolo[4,5-b]pyridin-5-yl]-3-hydroxy-5-(methoxymethyl)benzonitrile;2,2,2-trifluoroacetic acid] | 0.0058
CCN1CCC[C@@H](Nc2nc3nc(-c4c(C)cc(C#N)cc4O)cc(OC)c3o2)C1 [Example 111, 4-[2-[[(3R)-1-Ethyl-3-piperidyl]amino]-7-methoxy-oxazolo[4,5-b]pyridin-5-yl]-3-hydroxy-5-methyl-benzonitrile;2,2,2-trifluoroacetic acid] | 0.0022
